The values below come from the supplement of paper PMC10307832.

Holding throughout (experiment): relative viability (nuclei count vs DMSO), 5 days (fraction); higher = more cells survive
Compound in assay [1]: CC[C@H](Nc1ncnc2[nH]cnc12)c1nc2cccc(F)c2c(=O)n1-c1ccccc1 [Idelalisib] + CC(=O)Nc1cccc(-n2c(=O)n(C3CC3)c(=O)c3c(Nc4ccc(I)cc4F)n(C)c(=O)c(C)c32)c1 [Trametinib] (partner 0.02 µM)
In short, it runs like this: (§1)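 Relative viability was taken as the ratio of nuclei in treated wells to nuclei in vehicle wells. Lung cancer cell lines in 1536-well plates received compounds by pin tool one day after seeding, either one drug alone or a fixed anchor-drug dose plus five library-drug doses (not always all listed) in √10 steps. Nuclei were counted on 4× images after 5 days of treatment, and values are medians of duplicate plates.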

Compound in assay [2]: Nc1nc2[nH]cc(CCc3ccc(C(=O)N[C@@H](CCC(=O)O)C(=O)O)cc3)c2c(=O)[nH]1 [Pemetrexed] + O=C(c1cc(Cc2n[nH]c(=O)c3ccccc23)ccc1F)N1CCN(C(=O)C2CC2)CC1 [Olaparib] (partner 8 µM)
In short, it runs like this: as §1

Compound in assay [3]: Nc1nc2[nH]cc(CCc3ccc(C(=O)N[C@@H](CCC(=O)O)C(=O)O)cc3)c2c(=O)[nH]1 [Pemetrexed] + CS(=O)(=O)CCNCc1ccc(-c2ccc3ncnc(Nc4ccc(OCc5cccc(F)c5)c(Cl)c4)c3c2)o1 [Lapatinib] (partner 2 µM)
In short, it runs like this: as §1

Compound in assay [4]: CC[C@H](Nc1ncnc2[nH]cnc12)c1nc2cccc(F)c2c(=O)n1-c1ccccc1 [Idelalisib] + C[C@]1(O)C[C@@H](c2nc(-c3ccc4ccc(-c5ccccc5)nc4c3)c3c(N)nccn32)C1 [Linsitinib] (partner 1 µM)
The gist of the method:
as §1

Take UMC-11: the relative viability in assay [1] (first compound 0.04 µM) was 0.786; in assay [1] (first compound 0.1265 µM) it was 0.651; in assay [1] (first compound 0.4 µM) it was 0.629; in assay [1] (first compound 1.265 µM), 0.764; in assay [1] (first compound 4 µM) it was 0.72; in assay [2] (first compound 0.002 µM) it was 0.361. The relative viability worked out at 0.374 in assay [2] (first compound 0.006325 µM); 0.999 in assay [2] (first compound 0.02 µM); 0.441 in assay [2] (first compound 0.06325 µM); 0.358 in assay [2] (first compound 0.2 µM); 1.24 in assay [3] (first compound 0.002 µM); 0.952 in assay [3] (first compound 0.006325 µM). For the same cell line, the relative viability in assay [3] (first compound 0.02 µM) came to 1.11; in assay [3] (first compound 0.06325 µM), 1.05; in assay [3] (first compound 0.2 µM), 0.746; in assay [4] (first compound 0.04 µM), 0.912; in assay [4] (first compound 0.1265 µM), 1.02; in assay [4] (first compound 0.4 µM), 0.966. The relative viability stood at 1.01 in assay [4] (first compound 1.265 µM) and 1.06 in assay [4] (first compound 4 µM).
